Reference: US12570618B2, “Compound, production method therefor, and pharmaceutical composition” (TOKYO UNIVERSITY OF SCIENCE FOUNDATION, priority 2021, dated 2026)

How the values were obtained:
Test in all cases: cell proliferation inhibitory activity, WST-8 (Test Example 3)
Format in all cases: cell-based
[1] = tested on: H2228 (Lung adenocarcinoma cell line); conditions: Homo sapiens, NCI-H2228, 48 h; H2228, 2 days with compound, WST-8, Table 3
Description: (§1) Compounds RS8 to RS10 obtained in Synthesis Examples 8 to 10 were examined for cell proliferation inhibitory activity against human cultured cancer cells. The cancer cells used were two human lung adenocarcinoma cell lines and one human lung squamous cell carcinoma cell line. The cancer cells of each type were seeded on a 96-well plate and cultured for 2 days, and cultured for 2 days with addition of serially diluted products of the compounds, and the cell proliferation was then measured by colorimetry with a water-soluble tetrazolium salt (WST-8). Thereafter, 50% cell proliferation inhibitory concentrations (GI50) were calculated from the cell proliferation curves.

[2] = tested on: H226 (Lung squamous cell carcinoma cell line); conditions: Homo sapiens, NCI-H226, 48 h; H226, 2 days with compound, WST-8, Table 3
Description: as §1

[3] = tested on: H1650 (Lung adenocarcinoma cell line); conditions: Homo sapiens, NCI-H1650, 48 h; H1650, 2 days with compound, WST-8, Table 3
Description: as §1

**Q.** How did the GI50 [1] turn out when `C[C@@H]1[C@@H](O)[C@H](C)C[C@@H]2C=C[C@H](C)[C@H](/C=C/C=C(\Br)C(=O)OCc3ccccn3)[C@@H]12` [RS10, Pyridin-2″-ylmethyl (2Z,4E)-2-bromo-5-((1′S,2′S,4′aR,6′R,7′S,8′S,8′aS)-7′-hydroxy-2′,6′,8′-trimethyl-1′,2′,4′a,5′,6′,7′,8′,8′a-octahydronaphthalen-1′-yl)penta-2,4-dienoate] was run?
**A.** The GI50 was 700 nM.

**Q.** And the GI50 [2]?
**A.** Its GI50 is 300 nM.

**Q.** What about the GI50 [3] of the same molecule?
**A.** The GI50 was 500 nM.
